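Cells were grown in 96-well plates and exposed to each compound for 48 hours at five concentrations; endpoints were interpolated linearly between bracketing concentrations, or set to the highest concentration if not reached. Abbreviation: GI50, concentration required for 50% inhibition of growth.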 The source made the active and inactive calls. Cut-off read from the data, not from the text of the source: active = GI50 up to about 1.1 µM and inactive = higher.
Tests used:
Test in all cases: NCI-60 cell line screen, 48 h
PC-3 = tested on: PC-3
HCT-116 = tested on: HCT-116
ACHN = tested on: ACHN
SR = tested on: SR
NCI-H226 = tested on: NCI-H226
HL-60 = tested on: HL-60
HOP-62 = tested on: HOP-62
NCI-H460 = tested on: NCI-H460
SW-620 = tested on: SW-620
BT-549 = tested on: BT-549
UACC-62 = tested on: UACC-62
NCI-H23 = tested on: NCI-H23
OVCAR-4 = tested on: OVCAR-4
HOP-92 = tested on: HOP-92
EKVX = tested on: EKVX
COLO 205 = tested on: COLO 205
NCI/ADR-RES = tested on: NCI/ADR-RES
Malme-3M = tested on: Malme-3M
Hs-578T = tested on: Hs-578T

Measured: GI50

COc1ccc(/C(Cl)=C(\C#N)c2ccc(OC)c(OC)c2)cc1OC
inactive: PC-3 79.1 µM | HCT-116 60.1 µM | ACHN 93.8 µM | SR 40.2 µM | NCI-H226 77.4 µM | HL-60 15.3 µM | HOP-62 43.7 µM | NCI-H460 36.8 µM | SW-620 > 100 µM | BT-549 57.7 µM | UACC-62 42.3 µM | NCI-H23 80.2 µM | OVCAR-4 81.5 µM | HOP-92 17.8 µM | EKVX 21.3 µM | COLO 205 44.5 µM

Cn1c(N=P(c2ccccc2)(c2ccccc2)c2ccccc2)c([N+](=O)[O-])c(=O)n(C)c1=O
inactive: PC-3 24.7 µM | HCT-116 36.6 µM | ACHN 55.7 µM | NCI-H226 > 100 µM | NCI/ADR-RES 89.9 µM | HOP-62 48 µM | NCI-H460 43.4 µM | SW-620 41.4 µM | BT-549 38.5 µM | Malme-3M > 100 µM | UACC-62 59.2 µM | NCI-H23 99.1 µM | OVCAR-4 41.1 µM | HOP-92 > 100 µM | EKVX 56.2 µM | COLO 205 44.5 µM | Hs-578T 25.2 µM

C/C1=C\CC[C@@]2(C)O[C@@H]2C[C@@H]2[C@H](C/C(C)=C/CC1)OC(=O)C21CC1
inactive: PC-3 > 100 µM | HCT-116 35 µM | ACHN 50.6 µM | SR 12.7 µM | NCI/ADR-RES > 100 µM | HL-60 24.2 µM | HOP-62 > 100 µM | NCI-H460 56.8 µM | SW-620 60.7 µM | BT-549 44.9 µM | Malme-3M > 100 µM | UACC-62 90.8 µM | EKVX > 100 µM | COLO 205 > 100 µM

CCCCN1C(=O)N(c2ccc(OCC)cc2)C2N(CCCC)C1C(C)(C)C2(C)C (stereo not given)
inactive: PC-3 23.2 µM | HCT-116 31.6 µM | ACHN 27.7 µM | NCI-H226 20.2 µM | NCI/ADR-RES 23.5 µM | HOP-62 35.9 µM | NCI-H460 42.2 µM | SW-620 32.6 µM | BT-549 30.3 µM | Malme-3M 24.2 µM | UACC-62 16.9 µM | NCI-H23 24.8 µM | OVCAR-4 37.8 µM | HOP-92 23.5 µM | EKVX 19.7 µM | COLO 205 22.5 µM | Hs-578T 18.6 µM

COc1ccccc1C(=O)c1c(N2CCCCC2)c(=O)c1=O
inactive: PC-3 > 100 µM | HCT-116 > 100 µM | ACHN > 100 µM | NCI-H226 > 100 µM | NCI/ADR-RES > 100 µM | HL-60 > 100 µM | HOP-62 > 100 µM | NCI-H460 > 100 µM | SW-620 > 100 µM | BT-549 > 100 µM | Malme-3M > 100 µM | UACC-62 > 100 µM | NCI-H23 > 100 µM | OVCAR-4 > 100 µM | HOP-92 > 100 µM | EKVX > 100 µM | COLO 205 > 100 µM

CC(=O)c1cccc(Nc2nc3ccc(Cl)cc3c3[nH]c4ccccc4c23)c1
inactive: PC-3 5.86 µM | HCT-116 3.85 µM | ACHN 4.11 µM | NCI/ADR-RES 4.38 µM | HOP-62 4.17 µM | NCI-H460 1.71 µM | SW-620 4.35 µM | BT-549 64.1 µM | Malme-3M 4.95 µM | UACC-62 2.19 µM | NCI-H23 12.8 µM | HOP-92 3.48 µM | EKVX 3.54 µM | COLO 205 2.07 µM | Hs-578T 9.35 µM

CCOC(=O)c1c(N)nn2c1cc1cccccc12
inactive: PC-3 23.6 µM | HCT-116 33.5 µM | ACHN 27.9 µM | NCI/ADR-RES 25.9 µM | HL-60 32.5 µM | HOP-62 29.8 µM | NCI-H460 20.1 µM | SW-620 32.5 µM | BT-549 25.3 µM | Malme-3M 27.8 µM | UACC-62 23.6 µM | NCI-H23 29.3 µM | OVCAR-4 33.6 µM | HOP-92 33.5 µM | EKVX 16.3 µM | COLO 205 31.9 µM | Hs-578T 29.9 µM

CCN(C(=S)N[C@H](C(=O)N[C@@H](C)C(=O)OC)C(C)C)c1ccccc1
inactive: PC-3 64.9 µM | HCT-116 70.8 µM | ACHN 64.4 µM | SR 18.9 µM | NCI-H226 > 100 µM | NCI/ADR-RES > 100 µM | HOP-62 91.6 µM | NCI-H460 33.6 µM | SW-620 59.7 µM | BT-549 > 100 µM | Malme-3M 21.8 µM | UACC-62 76.7 µM | NCI-H23 > 100 µM | OVCAR-4 > 100 µM | HOP-92 51.4 µM | EKVX > 100 µM | COLO 205 59.6 µM

N#Cc1c(N)nc(S)c(C#N)c1-c1ccccc1
inactive: PC-3 > 100 µM | HCT-116 > 100 µM | ACHN > 100 µM | SR > 100 µM | NCI-H226 > 100 µM | HL-60 > 100 µM | HOP-62 > 100 µM | NCI-H460 > 100 µM | SW-620 > 100 µM | BT-549 54 µM | Malme-3M > 100 µM | UACC-62 > 100 µM | NCI-H23 > 100 µM | EKVX > 100 µM | Hs-578T > 100 µM

Reference: ChEMBL document CHEMBL1201862, “PubChem BioAssay data set” (2004)
